Data on eight compounds can be found in patent publication US6927229B2 (dated 2005).

In general, melting point refers to the temperature of the solid-liquid transition. Take `O=C1O[C@@H](CNC(=S)C(F)F)CN1c1ccc(N2CCCS(=O)(=O)CC2)c(F)c1`: the melting point was in the range of 128 to 130 °C. For the compound `O=C1O[C@@H](CNC(=S)C(F)F)CN1c1cc(F)c(N2CCS(=O)(=O)CC2)c(F)c1`, the melting point lay in the range of 88 to 90 °C.

As for `O=C1O[C@@H](CNC(=S)C(F)F)CN1c1cc(F)c(C2CCS(=O)(=O)CC2)c(F)c1`, the melting point was in the range of 126 to 128 °C. The value for `O=C1O[C@@H](CNC(=S)C(F)F)CN1c1ccc(N2CCS(=O)(=O)CC2)cc1` was 126 to 127 °C; that for `O=C1O[C@@H](CNC(=S)C(F)F)CN1c1ccc(N2CC[S+]([O-])CC2)cc1` was 155 to 156 °C; that for `O=C1O[C@@H](CNC(=S)C(F)F)CN1c1ccc(C2CCS(=O)(=O)CC2)cc1` was 174 to 176 °C. The value for `O=C1O[C@@H](CNC(=S)C(F)F)CN1c1ccc(N2CCS(=O)(=O)CC2)c(F)c1` was 146 to 147 °C; that for `O=C1O[C@@H](CNC(=S)C(F)F)CN1c1ccc(C2CCS(=O)(=O)CC2)c(F)c1` was 168 to 169 °C.
